{
  "source": "the Kinase Knowledgebase extract (Sharma et al. 2016)",
  "biological_target": "MAPK14 (UniProt Q16539)",
  "sequence (Q16539 whole entry, looked up)": "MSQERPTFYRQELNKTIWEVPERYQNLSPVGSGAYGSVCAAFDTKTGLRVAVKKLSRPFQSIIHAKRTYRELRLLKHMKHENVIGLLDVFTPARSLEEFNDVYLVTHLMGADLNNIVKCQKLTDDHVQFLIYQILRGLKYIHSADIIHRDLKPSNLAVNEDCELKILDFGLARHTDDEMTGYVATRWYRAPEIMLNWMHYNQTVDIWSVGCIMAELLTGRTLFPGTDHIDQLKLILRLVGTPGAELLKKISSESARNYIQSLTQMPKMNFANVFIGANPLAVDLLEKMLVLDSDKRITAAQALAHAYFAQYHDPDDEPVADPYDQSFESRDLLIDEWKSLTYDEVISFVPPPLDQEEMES",
  "test": "p38 Kinase Inhibition Assay",
  "data": [
    {"smiles": "O=CNc1ccc(C(=O)N2CCC(Cc3ccccc3)CC2)cc1", "values": [
      {"measurement": "IC50", "value": "200 to 1500", "unit": "nM"}
    ]},
    {"smiles": "Nc1ccc(C(=O)N2CCC(Cc3ccccc3)CC2)cc1", "values": [
      {"measurement": "IC50", "value": "200 to 1500", "unit": "nM"}
    ]},
    {"smiles": "S=C(c1ccccc1)N1CCC(Cc2ccccc2)CC1", "values": [
      {"measurement": "IC50", "value": "200 to 1500", "unit": "nM"}
    ]},
    {"smiles": "CN(C)c1cccc(C(=O)N2CCC(Cc3ccccc3)CC2)c1", "values": [
      {"measurement": "IC50", "value": "200 to 1500", "unit": "nM"}
    ]},
    {"smiles": "CC1(Cc2ccccc2)CCN(C(=O)c2ccccc2Br)CC1", "values": [
      {"measurement": "IC50", "value": "200 to 1500", "unit": "nM"}
    ]},
    {"smiles": "O=C(c1ccccc1Cl)N1CCC(Cc2ccccc2)CC1", "values": [
      {"measurement": "IC50", "value": "200 to 1500", "unit": "nM"}
    ]},
    {"smiles": "CN(C)c1ccc(C(=O)N2CCC(Cc3ccccc3)CC2)c(Cl)c1", "values": [
      {"measurement": "IC50", "value": "200 to 1500", "unit": "nM"}
    ]},
    {"smiles": "Cc1ccccc1C(=O)N1CCC(Cc2ccccc2)CC1", "values": [
      {"measurement": "IC50", "value": "200 to 1500", "unit": "nM"}
    ]},
    {"smiles": "CN(C)c1ccccc1C(=O)N1CCC(Cc2ccccc2)CC1", "values": [
      {"measurement": "IC50", "value": "200 to 1500", "unit": "nM"}
    ]},
    {"smiles": "O=C(c1ccccc1I)N1CCC(Cc2ccccc2)CC1", "values": [
      {"measurement": "IC50", "value": "200 to 1500", "unit": "nM"}
    ]},
    {"smiles": "O=C(c1ccccc1O)N1CCC(Cc2ccccc2)CC1", "values": [
      {"measurement": "IC50", "value": "200 to 1500", "unit": "nM"}
    ]},
    {"smiles": "CNc1ccccc1C(=O)N1CCC(Cc2ccccc2)CC1", "values": [
      {"measurement": "IC50", "value": "200 to 1500", "unit": "nM"}
    ]},
    {"smiles": "CC(=O)Nc1ccc(C(=O)N2CCC(Cc3ccccc3)CC2)cc1", "values": [
      {"measurement": "IC50", "value": "200 to 1500", "unit": "nM"}
    ]},
    {"smiles": "Nc1ccc(C(=O)N2CCC(Cc3ccccc3)CC2)c(Cl)c1", "values": [
      {"measurement": "IC50", "value": "200 to 1500", "unit": "nM"}
    ]},
    {"smiles": "O=C(c1ccccc1Br)N1CCC(Cc2ccccc2)CC1", "values": [
      {"measurement": "IC50", "value": "200 to 1500", "unit": "nM"}
    ]},
    {"smiles": "COc1ccc(C(=O)N2CCC(Cc3ccccc3)CC2)c(OC)c1", "values": [
      {"measurement": "IC50", "value": "200 to 1500", "unit": "nM"}
    ]},
    {"smiles": "COc1cccc(OC)c1C(=O)N1CCC(Cc2ccccc2)CC1", "values": [
      {"measurement": "IC50", "value": "200 to 1500", "unit": "nM"}
    ]},
    {"smiles": "CNc1ccc(C(=O)N2CCC(Cc3ccccc3)CC2)c(Cl)c1", "values": [
      {"measurement": "IC50", "value": "200 to 1500", "unit": "nM"}
    ]},
    {"smiles": "O=C(c1ccccc1)N1CCC(Cc2ccccc2)CC1", "values": [
      {"measurement": "IC50", "value": "200 to 1500", "unit": "nM"}
    ]},
    {"smiles": "CN(C)c1ccc(C(=O)N2CCC(Cc3ccccc3)CC2)cc1", "values": [
      {"measurement": "IC50", "value": "200 to 1500", "unit": "nM"}
    ]}
  ]
}
